Data published in patent US20190083420A1, “METHODS OF USING (2R, 6R)-HYDROXYN[…] (2S, 6S)-HYDROXYN[…] THE TREATMENT OF DEPRESSION, ANXIETY, ANHEDONIA, FATIGUE, SUICIDAL IDEATION, AND POST TRAUMATIC STRESS DISORDERS” (The Uinited States of America, as represented by the …, priority 2016, published 2019).
Entries after “also recorded” stand apart in the source; their conditions may differ.

Assays:
mice [1] = assay: Pre-pulse inhibition of acoustic startle; type: in vivo
From the text: Mice were individually tested in acoustic startle boxes (SR-LAB, San Diego Instruments). Following drug administration, mice were placed in the startle chamber for a 30-min habituation period. The experiment started with a further 5-min adaptation period during which the mice were exposed to a constant background noise (67 dB), followed by five initial startle stimuli (120 dB, 40 msec duration each). Subsequently, animals were exposed to five different trial types: pulse alone trials (120 dB, 40 msec duration), three pre-pulse trials of 76, 81 and 86 dB of white noise bursts (20 msec duration) preceding a 120 dB pulse by 100 msec, and background (67 dB) no-stimuli trials. Each of these trials was randomly presented five times. Ketamine's dose selection (30 mg/kg) was based on a dose-response study we performed in a previous study. The percentage pre-pulse inhibition (% PPI) was calculated using the following formula: [(magnitude on pulse alone trial—magnitude on pre-pulse+pulse trial)/magnitude on pulse alone trial]×100.

mice [2] = assay: Quantitative EEG, cortical oscillation power; type: in vivo; conditions: for cortical gamma power: acute; for cortical gamma power / cortical alpha, beta, delta and theta oscillations: after i.p. 10 mg/kg
Description: EEG experiments were performed according to Raver et al., (Neuropsychopharmacology, 38, 2338-2347 (2013)) with minor modifications. Mice were anesthetized with isoflurane and kept under anesthesia throughout the surgery. An F20-EET radio-telemetric transmitter (Data Sciences International, Minneapolis, Minn.) was implanted subcutaneously and its leads implanted over the dura above the frontal cortex (1.7 mm anterior to bregma) and the cerebellum (6.4 mm posterior to bregma). Animals recovered from surgery for 7 days before recordings.
Mice were singly housed and acclimated to the behavioral room for 24 hours prior to EEG recordings. EEGs were recorded using the Dataquest A.R.T. acquisition system (Data Sciences International) with frontal EEG recordings referenced to the cerebellum. Baseline EEG (10 min) recordings were followed by an i.p. injection of saline, ketamine (10 mg/kg) or (2R,6R)-HNK (10 mg/kg) and 40 min of post-injection recordings.
ECoGs were analyzed using custom-written MATLAB scripts (Version 2012a, Mathworks, Mass.) and the mtspecgramc routine in the Chronux Toolbox (http://chronux.org; Mitra and Bokil, 2008). Oscillation power in each bandwidth (δ=1-3 Hz; θ=4-7 Hz; α=8-12 Hz; β=13-29 Hz; γ=30-80 Hz) was computed in 10 min bins from spectrograms for each animal.

GluR1 and GluR2 = assay: Western blot of synaptoneurosomes, GluR1 and GluR2 levels; type: in vivo, mice
Description: To purify synaptoneurosomes, mouse prefrontal cortex or hippocampus were dissected and homogenized in Syn-PER Reagent (ThermoFisher Scientific, Waltham, Mass., USA; Cat #87793) with 1× protease and phosphatase inhibitor cocktail (ThermoFisher Scientific, Waltham, Mass., USA; Cat #78440). The homogenate was centrifuged for 10 min at 1,200×g at 4° C. The supernatant was centrifuged at 15,000×g for 20 min. After centrifugation, the supernatant the pellet (synaptosomal fraction) was re-suspended and sonicated in N-PER Neuronal Protein Extraction Reagent (ThermoFisher Scientific, Waltham, Mass., USA; Cat #87792). For total homogenous tissue lysates, mouse prefrontal cortex or hippocampus were homogenized and sonicated in N-PER Neuronal Protein Extraction Reagent with 1× protease & phosphatase inhibitor cocktail) Protein concentration was determined via the BCA protein assay kit (ThermoFisher Scientific, Waltham, Mass., USA; Cat #23227).
For western blotting, equal amount of proteins (10-40 μg as optimal for each antibody) for each sample were loaded into NuPage 4-12% Bis-Tris gel for electrophoresis. Nitrocellulose membranes with transferred proteins were blocked with 5% milk in TBST (TBS+0.1% Tween-20) for 1 hour and kept with primary antibodies overnight at 4° C. The following primary antibodies were used: phospho-eEF2 (Cell Signaling Technology, Danvers, Mass., USA; Cat #2331), total eEF2 (Cell Signaling Technology, Danvers, Mass., USA; Cat #2332), phospho-mTOR (Cell Signaling Technology, Danvers, Mass., USA; Cat #2971), total mTOR (Cell Signaling Technology, Danvers, Mass., USA; Cat #2983), GluR1 (Cell Signaling Technology, Danvers, Mass., USA; […]), GluR2 (Cell Signaling Technology, Danvers, Mass., USA; Cat #13607), BDNF (Santa Cruz Biotechnology, Dallas, Tex., USA; Cat # sc-546), and GAPDH (Abcam, Cambridge, Mass., USA; Cat # ab8245). The next day, blots were washed three times in PBST and incubated with horseradish peroxidase conjugated anti-mouse or anti-rabbit secondary antibody (1:5000 to 1:10000) for 1 hour. After final three washes with TBST, bands were detected using enhanced chemiluminescence (ECL) with the Syngene Imaging System (G:Box ChemiXX9). After imaging, the blots then were incubated in the stripping buffer (ThermoFisher Scientific, Waltham, Mass., USA; Cat #46430) for 10-15 min at room temperature followed by three time washes with TBST. The stripped blots were washed in blocking solution for 1 hour and incubated with the primary antibody directed against total levels of the respective protein or GAPDH for loading control. Densitometric analysis of phospho- and total immunoreactive bands for each protein was conducted using Syngene's GenTools software Immunoreactivity was normalized to the saline treated control group for each protein.

| Compound | startle amplitude in the pre-pulse inhibition task (mice [1]; mouse, in vivo) | cortical gamma power (mice [2]; 10 mg/kg) | cortical alpha, beta, delta and theta oscillations (mice [2]) | locomotor home-cage activity during EEG recording (mice [2]; mouse, in vivo) | GluR1 and GluR2 levels in hippocampal synaptoneurosomes (GluR1 and GluR2; 1 hour post-treatment) | GluR1 and GluR2 levels in hippocampal synaptoneurosomes (GluR1 and GluR2; 24 hours post-treatment) | GluR1/GluR2 levels in prefrontal cortex synaptoneurosomes (GluR1 and GluR2; listed as (R,S)-KET) | pre-pulse inhibition (sensorimotor gating) (mice [1]; (2R,6R)-HNK up to 375 mg/kg) | cortical alpha, beta, delta and theta oscillations (mice [2]; 10 mg/kg) | GluR1/GluR2 levels in prefrontal cortex synaptoneurosomes (GluR1 and GluR2) |
| --- | --- | --- | --- | --- | --- | --- | --- | --- | --- | --- |
| CNC1(c2ccccc2Cl)CCCCC1=O (racemic) [ketamine, (R,S)-ketamine, reference compound] | not affected | acutely increases cortical gamma power | Neither (R,S)-KET, nor (2R,6R)-HNK altered | increased locomotor home-cage activity | neither ketamine nor (2R,6R)-HNK administration altered | both increased GluR1 and GluR2 levels | did not alter synaptoneurosome levels of GluR1/GluR2 | – | – | – |
| N[C@@]1(c2ccccc2Cl)CCC[C@@H](O)C1=O [(2R,6R)-HNK, (2R,6R)-2-amino-2-(2-chlorophenyl)-6-hydroxycyclohexanone] | – | acutely increases cortical gamma power | – | – | neither ketamine nor (2R,6R)-HNK administration altered | both increased GluR1 and GluR2 levels | – | did not induce 4e, pre-pulse inhibition deficits; also recorded: did not affect sensorimotor gating; also recorded: did not affect pre-pulse inhibition | without altering alpha, beta, delta or theta oscillations; also recorded: Neither (R,S)-KET, nor (2R,6R)-HNK altered | did not alter synaptoneurosome levels of GluR1/GluR2 |
